Usually IC50 stands for the point on the concentration scale where inhibition reaches its midpoint. A higher IC50 goes with lower potency.

The target of this test is C-Raf FL (Homo sapiens (Human), UniProt P04049, Y340E/Y341E). The test is described as follows: In vitro Raf activity determination (Alpha Screen, phospho-MEK), C-Raf FL (full length, Y340E/Y341E). Format: biochemical. The following applies: ATP 1 μM; 60 min pre-incubation; 1 hour reaction; column head does not say FL or TR. An excerpt: The activity of a compound according to the present invention can be assessed by well-known in vitro & in vivo methods. Raf inhibition data provided herein was obtained using the following procedures.
C-Raf FL, sequence (P04049 whole entry Y340E/Y341E): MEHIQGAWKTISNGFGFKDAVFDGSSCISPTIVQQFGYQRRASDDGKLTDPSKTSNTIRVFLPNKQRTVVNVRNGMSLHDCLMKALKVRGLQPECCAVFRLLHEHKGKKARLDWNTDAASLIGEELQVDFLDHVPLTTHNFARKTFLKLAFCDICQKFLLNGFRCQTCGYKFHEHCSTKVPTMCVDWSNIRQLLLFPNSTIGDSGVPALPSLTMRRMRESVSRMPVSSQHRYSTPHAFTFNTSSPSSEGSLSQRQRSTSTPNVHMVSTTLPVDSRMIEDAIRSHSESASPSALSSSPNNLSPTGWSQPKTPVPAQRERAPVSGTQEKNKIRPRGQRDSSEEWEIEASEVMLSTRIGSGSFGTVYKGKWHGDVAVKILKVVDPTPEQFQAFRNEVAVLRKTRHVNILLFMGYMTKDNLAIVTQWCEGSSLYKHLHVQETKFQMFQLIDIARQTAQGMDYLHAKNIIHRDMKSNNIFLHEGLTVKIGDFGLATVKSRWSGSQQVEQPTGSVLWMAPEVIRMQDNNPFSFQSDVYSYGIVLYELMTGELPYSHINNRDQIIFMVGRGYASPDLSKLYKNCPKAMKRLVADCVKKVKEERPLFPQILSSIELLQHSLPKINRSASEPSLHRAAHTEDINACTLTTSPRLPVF
C-Raf FL, sequence (P63104 whole entry partner): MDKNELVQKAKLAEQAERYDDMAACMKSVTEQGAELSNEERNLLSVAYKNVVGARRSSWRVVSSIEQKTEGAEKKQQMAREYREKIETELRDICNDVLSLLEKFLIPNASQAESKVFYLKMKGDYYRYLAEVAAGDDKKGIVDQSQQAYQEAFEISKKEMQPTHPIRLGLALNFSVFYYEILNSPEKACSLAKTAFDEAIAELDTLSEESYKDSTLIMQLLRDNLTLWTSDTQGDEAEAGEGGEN
Sf9 cells co-expressing both proteins were lysed and subjected to immobilized nickel chromatography and eluted with Imidazole. A second column (StrepII binding column) was used and eluted with desthiobiotin. Protein Tags were removed using Prescission enzyme and the protein was further purified using a flowthrough step to remove tags.
C-Raf TR refers to a truncated C-Raf protein, a Δ1-324 deletion mutant. C-Raf FL refers to the full-length C-Raf protein.
Full length MEK1 with an inactivating K97R ATP binding site mutation is utilized as a RAF substrate. The MEK1 cDNA was subcloned with an N-terminal (his)6 tag into a vector for E. Coli expression. The MEK1 substrate was purified from E. Coli lysate by nickel affinity chromatography followed by anion exchange. The final MEK1 preparation was biotinylated (Pierce EZ-Link Sulfo-NHS-LC-Biotin) and concentrated.
Assay protocol: Raf and biotinylated Mek (kinase dead) were combined at 2× final concentrations in assay buffer (50 mM Tris, pH 7.5, 15 mM MgCl2, 0.01% BSA and 1 mM DTT) and dispensed […] per well in assay plates (Greiner white 384 well assay plates #781207) containing […] of 40× of a Raf kinase inhibitor test compound diluted in 100% DMSO. The plate was incubated for 60 minutes at room temperature. […] The reactions were stopped and the phosphorylated product was measured using a rabbit anti-p-MEK (Cell Signaling, #9121) antibody and the Alpha Screen IgG (ProteinA) detection Kit (PerkinElmer #6760617R), by the addition of […] to the well of a mixture of the antibody (1:2000 dilution) and detection beads (1:2000 dilution of both beads) in Stop/bead buffer (25 mM EDTA, 50 mM Tris, pH 7.5, 0.01% Tween20). The additions were carried out under dark conditions to protect the detection beads from light. A lid was placed on top of the plate and incubated for 1 hour at room temperature, after which the luminescence was read on a PerkinElmer Envision instrument. The concentration of each compound for 50% inhibition (IC50) was calculated by non-linear regression using XL Fit data analysis software.
Regarding `Cc1ncc(NC(=O)c2ccnc(C(C)(F)F)c2)cc1-c1cc(C2(O)COC2)cc(C2(F)COC2)c1` [Example 141, 2-(1,1-difluoroethyl)-N-(5-(3-(3-fluorooxetan-3-yl)-5-(3-hydroxyoxetan-3-yl)phenyl)-6-methylpyridin-3-yl)isonicotinamide], the IC50 worked out at 5.9 nM. Next, `Cc1ccc(NC(=O)c2ccnc(C(F)(F)F)c2)cc1-c1cc(OCCO)nc(C2(CF)CCOCC2)c1` [Example 210]: 0.3 nM; `COCCNc1nnc(-c2cc(NC(=O)c3ccnc(C(F)(F)F)c3)ccc2C)cc1C1CCOCC1` [Example 307, N-(3-(6-((2-methoxyethyl)amino)-5-(tetrahydro-2H-pyran-4-yl)pyridazin-3-yl)-4-methylphenyl)-2-(trifluoromethyl)isonicotinamide]: 0.08 nM; `Cc1ccc(NC(=O)c2ccc(CN)c(C(F)(F)F)c2)cc1-c1cccc(C2COC2)c1` [Example 5, 4-(aminomethyl)-N-(6-methyl-3′-(oxetan-3-yl)-[1,1′-biphenyl]-3-yl)-3-(trifluoromethyl)benzamide]: 2 nM. Regarding `Cc1ccc(NC(=O)c2ccnc(C(F)(F)F)c2)cc1-c1cc(N2CCOC2=O)nc(C2(O)CCOCC2)c1` [Example 286, N-(3-(2-(4-hydroxytetrahydro-2H-pyran-4-yl)-6-(2-oxooxazolidin-3-yl)pyridin-4-yl)-4-methylphenyl)-2-(trifluoromethyl)isonicotinamide], 0.297 nM corresponded to half-maximal inhibition (IC50). This IC50 is about 6.7-fold lower than that of the molecule before. In the case of `Cc1ccc(NC(=O)c2ccnc(C(F)(F)F)c2)cc1-c1cc(NCCO)nc(C2CCOCC2)c1` [Example 172, N-(3-(2-((2-hydroxyethyl)amino)-6-(tetrahydro-2H-pyran-4-yl)pyridin-4-yl)-4-methylphenyl)-2-(trifluoromethyl) isonicotinamide], the IC50 worked out at 1.99 nM. Molecule `CCOc1nnc(-c2cc(NC(=O)c3ccnc(C#N)c3)ccc2C)cc1C1CCOCC1` [Example 229, 2-cyano-N-(3-(6-ethoxy-5-(tetrahydro-2H-pyran-4-yl)pyridazin-3-yl)-4-methylphenyl)] returned an IC50 of 0.7 nM. To `CCOc1ncc(-c2cc(NC(=O)c3cc(C(F)(F)F)cc(C(C)(C)N)n3)ccc2C)cc1C1(O)COC1` [Example 147, 6-(2-aminopropan-2-yl)-N-(3-(6-ethoxy-5-(3-hydroxyoxetan-3-yl)pyridin-3-yl)-4-methylphenyl)-4-(trifluoromethyl)picolin-amide] belongs 4.51 nM; to `COC1(c2cc(-c3cc(NC(=O)c4ccnc(C(C)(C)F)c4)cnc3C)cnc2OCCO)COC1` [Example 61, 2-(2-fluoropropan-2-yl)-N-(6′-(2-hydroxyethoxy)-5′-(3-methoxyoxetan-3-yl)-2-methyl-[3,3′-bipyridin]-5-yl)isonicotinamide], 1.32 nM; to `Cc1ncc(NC(=O)c2cccc(C(F)(F)F)c2)cc1-c1cc(C2CCOCC2)nc(N2CCC(O)CC2)c1` [Example 183, N-(2′-(4-hydroxypiperidin-1-yl)-2-methyl-6′-(tetrahydro-2H-pyran-4-yl)-[3,4′-bipyridin]-5-yl)-3-(trifluoromethyl) benzamide], 1.99 nM. Regarding `Cc1nc2cc(C3CCOCC3)cc(-c3cc(NC(=O)c4ccnc(C(F)(F)F)c4)ccc3C)c2[nH]1` [Example 220, N-(4-methyl-3-(2-methyl-5-(tetrahydro-2H-pyran-4-yl)-1H-benzo[d]imidazol-7-yl)phenyl)-2-(trifluoromethyl) isonicotinamide], the IC50 amounted to 0.7 nM.

The molecule `CCOc1nnc(-c2cc(NC(=O)c3ccnc(C4(C(F)(F)F)CC4)c3)ccc2C)cc1C1CCOCC1` [Example 227, N-(3-(6-ethoxy-5-(tetrahydro-2H-pyran-4-yl)pyridazin-3-yl)-4-methylphenyl)-2-(1-(trifluoromethyl)cyclopropyl) isonicotinamide] registered an IC50 of 0.2 nM.

Consider `Cc1ccc(NC(=O)c2cc3cnccc3nc2C(F)(F)F)cc1-c1cc(OCCO)nc(C2CCOCC2)c1` [Example 255, N-(3-(2-(2-hydroxyethoxy)-6-(terahydro-2H-pyran-4-yl)pyridin-4-yl)-4-methylphenyl)-2-(trifluoromethyl)-1,6-naphthyridine-3-carboxamide], for which the IC50 stood at 0.2 nM. Take `Cc1ncc(NC(=O)c2ccnc(C(C)(C)F)c2)cc1-c1cc(C2(O)COC2)cc(C2(F)COC2)c1` [Example 142, N-(5-(3-(3-fluorooxetan-3-yl)-5-(3-hydroxyoxetan-3-yl)phenyl)-6-methylpyridin-3-yl)-2-(2-fluoropropan-2-yl)isonicotinamide]: the IC50 amounted to 11.2 nM. With `Cc1ccc(NC(=O)c2cnc(C(F)(F)F)cn2)cc1-c1cc(OC[C@H](O)CO)nc(C2CCOCC2)c1` [Example 277, (R)-N-(3-(2-(2,3-dihydroxypropoxy)-6-(tetrahydro-2H-pyran-4-yl)pyridin-4-yl)-4-methylphenyl)-5-(trifluoromethyl) pyrazine-2-carboxamide], inhibition was half-maximal at 0.2 nM (IC50). This IC50 lies about 56-fold lower than the previous one. To `Cc1ccc(NC(=O)c2cc(C(C)(C)C)nc(O)n2)cc1-c1cc(OCCO)nc(C2CCOCC2)c1` [Example 256, 6-(tert-butyl)-2-hydroxy-N-(3-(2-(2-hydroxyethoxy)-6-(tetrahydro-2H-pyran-4-yl)pyridin-4-yl)-4-methylphenyl)pyrimidine-4-carboxamide] belongs 0.1 nM. For the molecule `Cc1ccc(NC(=O)c2cc(C(F)(F)F)ccn2)cc1-c1cc(OC[C@H](O)CO)nc(C2CCOCC2)c1` [Example 283, (R)-N-(3-(2-(2,3-dihydroxypropoxy)-6-(tetrahydro-2H-pyran-4-yl)pyridin-4-yl)-4-methylphenyl)-4-(trifluoromethyl) picolinamide], inhibition was half-maximal at 0.07 nM (IC50). This IC50 and that of the molecule before are within 1.5-fold of each other. With `Cc1ccc(NC(=O)c2ccnc(C(F)(F)F)c2)cc1-c1cc(C2(C)COC2)c(OCCO)nn1` [Example 14, N-(3-(6-(2-hydroxyethoxy)-5-(3-methyloxetan-3-yl)pyridazin-3-yl)-4-methylphenyl)-2-(trifluoromethyl)isonicotinamide], the IC50 was determined as 0.2 nM. To `Cc1ccc(NC(=O)c2ccnc(C(F)(F)F)c2)cc1-c1cc(C2(F)COC2)cc(OCCO)n1` [Example 47, N-(3-(4-(3-fluorooxetan-3-yl)-6-(2-hydroxyethoxy)pyridin-2-yl)-4-methylphenyl)-2-(trifluoromethyl)isonicotin-amide] belongs 4.35 nM; to `CCC(F)(F)c1cc(C(=O)Nc2ccc(C)c(-c3cc(C4CCOCC4)nc(N4CCC(O)CC4)c3)c2)ccn1` [Example 188, 2-(1,1-difluoropropyl)-N-(3-(2-(4-hydroxypiperidin-1-yl)-6-(tetrahydro-2H-pyran-4-yl)pyridin-4-yl)-4-methylphenyl)-2-isonicotinamide], 0.621 nM; to `Cc1ccc(NC(=O)c2cc(C(F)(F)F)ccn2)cc1-c1cc(OC[C@@H](O)CO)nc(C2CCOCC2)c1` [Example 284], 0.2 nM. To `CCC(F)(F)c1cc(C(=O)Nc2cnc(C)c(-c3cc(C4CCOCC4)nc(N4CCC(O)CC4)c3)c2)ccn1` [Example 185, 2-(1,1-difluoropropyl)-N-(2′-(4-hydroxypiperidin-1-yl)-2-methyl-6′-(tetrahydro-2H-pyran-4-yl)-[3,4′-bipyridin]-5-yl) isonicotinamide] belongs 0.331 nM; to `Cc1ccc(NC(=O)c2cc(Cl)ccn2)cc1-c1cc(OCCO)nc(C2CCOCC2)c1` [Example 261, 4-chloro-N-(3-(2-(2-hydroxyethoxy)-6-(tetrahydro-2H-pyran-4-yl)pyridin-4-yl)-4-methylphenyl) picolinamide], 0.03 nM. Next, `Cc1ncc(NC(=O)c2ccnc(C(C)(C)F)c2)cc1-c1cc(OCCO)nc(C2(F)COC2)c1` [Example 50, N-(2′-(3-fluorooxetan-3-yl)-6′-(2-hydroxyethoxy)-2-methyl-[3,4′-bipyridin]-5-yl)-2-(2-fluoropropan-2-yl)isonicotinamide]: 3.29 nM; `Cc1ccc(NC(=O)c2ccnc(C(F)(F)F)c2)cc1-c1cc(C2CCOCC2)c(NC[C@@H](C)O)nn1` [Example 312, (R)-N-(3-(6-((2-hydroxypropyl)amino)-5-(tetrahydro-2H-pyran-4-yl)pyridazin-3-yl)-4-methylphenyl)-2-(trifluoromethyl) isonicotinamide]: 0.1 nM. In turn, `Cc1ccc(NC(=O)c2ccnc(C(C)(F)F)c2)cc1-c1cc2c(c(C3CCOCC3)c1)NC(=O)C(C)(CO)O2` (centres unmarked) [Example 191, 2-(1,1-difluoroethyl)-N-(3-(2-(hydroxymethyl)-2-methyl-3-oxo-5-(tetrahydro-2H-pyran-4-yl)-3,4-dihydro-2H-benzo [b][1,4]oxazin-7-yl)-4-methylphenyl) isonicotinamide] had an IC50 of 0.1 nM.

Source of the values: patent US10167279B2 (NOVARTIS AG, priority 2014, dated 2019).
